How the values were obtained:
[1] = target: PKC-δ (Homo sapiens, UniProt Q05655); conditions: reported in reference [74]; cited from earlier work
[2] = target: PKC-α (Homo sapiens, UniProt P17252); conditions: reported in reference [74]; cited from earlier work
[3] = target: EGF-R (Homo sapiens, UniProt P00533); conditions: reported in reference [74]; cited from earlier work
[4] = test system: Mia-PaCa-2; assay: MTT cytotoxicity assay, Mia-PaCa-2; assay type: cell-based; conditions: Homo sapiens, after incubation
Procedure: (§1) The compounds of the invention were subjected to a standard cellular proliferation assay using human tumour cell lines obtained from the ATCC (American Type Culture Collection, 10801 University Boulevard, Manessas, Va. 20110-2209, USA). […] C.; Thomas, D. G.; Darling, J. L. Anti Cancer Drugs 1996, 7, 331-8; Loveland, B. E.; Johns, T. G.; Mackay, 1. R.; Vaillant, F.; Wang, Z. X.; Hertzog, P. J. Biochemistry International 1992, 27, 501-10). In short: cells were seeded into 96-well plates according to doubling time and incubated overnight at 37° C. […] MTT was made up as a stock of 5 mg/mL in cell media and filter-sterilised. Media was removed from cells followed by a wash with 200 μL PBS. MTT solution was then added at 20 μL per well and incubated in the dark at 37° C. for 4 h MTT solution was removed and cells again washed with 200 μL PBS. MTT dye was solubilised with 200 μL per well of DMSO with agitation. Absorbance was read at 540 nm and data analysed using curve-fitting software (GraphPad Prism version 3.00 for Windows, GrapbPad Software, San Diego Calif. USA) to determine IC50 values (concentration of test compound which inhibits cell growth by 50%).

[5] = target: T1, aurora-A (Homo sapiens, UniProt O14965); assay: Aurora-A (human) kinase assay; assay type: biochemical; conditions: Table 3, values without asterisk; read-out: Kinase inhibition Aurora A
T1 construct: purchased Upstate, Dundee, UK
T1 sequence (O14965 1-403): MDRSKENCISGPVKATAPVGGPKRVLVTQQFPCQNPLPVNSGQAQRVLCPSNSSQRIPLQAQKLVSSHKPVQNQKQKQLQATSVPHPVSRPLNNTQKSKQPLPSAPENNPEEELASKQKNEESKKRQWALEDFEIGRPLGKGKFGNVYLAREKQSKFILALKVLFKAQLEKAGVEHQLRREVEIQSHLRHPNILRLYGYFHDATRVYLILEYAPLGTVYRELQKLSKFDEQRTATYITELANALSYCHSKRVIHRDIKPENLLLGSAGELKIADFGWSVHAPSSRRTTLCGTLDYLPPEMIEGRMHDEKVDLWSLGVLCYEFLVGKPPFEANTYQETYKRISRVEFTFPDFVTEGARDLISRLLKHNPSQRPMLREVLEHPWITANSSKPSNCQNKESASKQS
Procedure: (§2) This was achieved by measurement of incorporation of radioactive phosphate from ATP into Kemptide substrate (LRRASLG), upon phosphorylation by commercially obtained aurora-A (human, Upstate, Dundee, UK). Assays were performed using 96-well plates and appropriate assay buffers (20 mM Tris, 25 mM β-glycerophosphate, 5 mM EGTA, 1 mM DTT, 1 mM sodium vanadate, pH 7.5), into which were added 2-5 ng of active enzyme with 500 μM substrate (Kemptide). The reactions were initiated by addition of MgATP mix (15 mM MgCl2+100 μM ATP with 15-25 kBq per well of [γ-^32P]-ATP) and mixtures incubated for 30 min at 30° C. Reactions were stopped by addition of an equal volume of 75 mM aq orthophosphoric acid, followed by filtration through p81 filterplates (Whatman Polyfiltronics, Kent, UK). After washing 4 times with 75 mM aq orthophosphoric acid, plates were dried, scintillant added and incorporated radioactivity measured in a scintillation counter (TopCount, Packard Instruments, Pangbourne, Berks, UK). Compounds for kinase assay were made up as 10 mM stocks in DMSO and diluted into 10% DMSO in assay buffer. Data was analysed using curve-fitting software (XLfit version 4.0.2, IDBS, Guildford, Surrey, UK) to determine IC50 values (concentration of test compound which inhibits kinase activity by 50%).

[6] = test system: A2780; assay: MTT cytotoxicity assay, A2780; assay type: cell-based; conditions: Homo sapiens, after incubation
Procedure: as §1

[7] = target: CDK2/cyclin E (Homo sapiens, UniProt P24941); assay: Kinase assay CDK2/cyclin E; assay type: biochemical; conditions: Table 3; read-out: Kinase inhibition CDK2E
Procedure: The compounds from the examples above were investigated for their ability to inhibit the enzymatic activity of various protein kinases. This was achieved by measurement of incorporation of radioactive phosphate from ATP into appropriate polypeptide substrates. Recombinant protein kinases and kinase complexes were produced or obtained commercially. Assays were performed using 96-well plates and appropriate assay buffers (typically 25 mM β-glycerophosphate, 20 mM MOPS, 5 mM EGTA, 1 mM DTT, 1 mM […], pH 7.4), into which were added 2-4 μg of active enzyme with appropriate substrates. The reactions were initiated by addition of Mg/ATP mix (15 mM MgCl2+100 μM ATP with 30-50 kBq per well of [γ-^32P]-ATP) and mixtures incubated as required at 30° C. Reactions were stopped on ice, followed by filtration through p81 filterplates or GF/C filterplates (Whatman Polyfiltronics, Kent, UK). After washing 3 times with 75 mM aq orthophosphoric acid, plates were dried, scintillant added and incorporated radioactivity measured in a scintillation counter (TopCount, Packard Instruments, Pangbourne, Berks, UK). Compounds for kinase assay were made up as 10 mM stocks in DMSO and diluted into 10% DMSO in assay buffer. Data was analysed using curve-fitting software (GraphPad Prism version 3.00 for Windows, GraphPad Software, San Diego Calif. USA) to determine IC50 values (concentration of test compound which inhibits kinase activity by 50%).

[8] = target: T2, Flt-3 (Homo sapiens, UniProt P36888); assay: Flt3 kinase assay; assay type: biochemical; conditions: Table 3; read-out: Kinase inhibition Flt3
T2 construct: purchased Upstate, Dundee, UK
T2 sequence (P36888 564-993 limits assumed): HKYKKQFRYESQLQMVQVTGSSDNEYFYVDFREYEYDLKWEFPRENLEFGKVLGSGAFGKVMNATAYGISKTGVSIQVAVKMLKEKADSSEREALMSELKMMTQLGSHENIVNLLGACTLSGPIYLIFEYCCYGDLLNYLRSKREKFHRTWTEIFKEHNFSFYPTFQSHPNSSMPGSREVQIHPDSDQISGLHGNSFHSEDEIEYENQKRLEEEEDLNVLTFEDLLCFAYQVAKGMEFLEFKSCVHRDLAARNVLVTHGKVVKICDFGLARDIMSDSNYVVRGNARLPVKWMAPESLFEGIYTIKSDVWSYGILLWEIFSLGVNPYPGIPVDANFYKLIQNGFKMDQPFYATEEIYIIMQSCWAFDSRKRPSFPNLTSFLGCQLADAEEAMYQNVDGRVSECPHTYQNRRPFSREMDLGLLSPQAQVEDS
Procedure: as §2, with “myelin basic protein (MBP) substrate,” for “Kemptide substrate (LRRASLG),”, “Flt-3” for “aurora-A (human,”, “5” for “2-5”, “0.4 mg/ml” for “500 μM”, “(MBP).” for “(Kemptide).”

[9] = target: CDK7/cyclin H (Homo sapiens, UniProt P50613); assay: CDK 7 assay; assay type: biochemical; conditions: Table 3; read-out: Kinase inhibition CDK7H
Procedure: CTD peptide substrate (biotinyl-Ahx-(Tyr-Ser-Pro-Thr-Ser-Pro-Ser)4-NH2; 1-2 mg/mL) and recombinant human CDK7/cyclin H, CDK9/cyclin TI, or CDK9/cyclin K (0.5-2 μg) were incubated for 45 min at 30° C. in the presence of varying amounts of test compound in 20 mM MOPS pH 7.2, 25 mM β-glycerophosphate, 5 mM EGTA, 1 mM DTT, 1 mM sodium vanadate, 15 mM MgCl2, and 100 μM ATP (containing a trace amount of ^32PγATP) in a total volume of 25 μL in a 96-well microtiter plate. The reaction was stopped by placing the plate on ice for 2 min. Avidin (50 μg) was added to each well, and the plate was incubated at room temp for 30 min. The samples were transferred to a 96-well P81 filter plate, and washed (4×200 μL per well) with 75 mM phosphoric acid. Microscint 40 scintillation liquid (50 μL) was added to each well, and the amount of ^32P incorporation for each sample was measured using a Packard Topcount microplate scintillation counter.

[10] = target: T3, aurora-B (Homo sapiens, UniProt Q96GD4); assay: Aurora-B (human) kinase assay; assay type: biochemical; conditions: Table 3; read-out: Kinase inhibition Aurora B
T3 construct: purchased Upstate, Dundee, UK
Procedure: as §2, with “obtained aurora-B” for “obtained aurora-A”, “added 75” for “added 2-5”, “of pre-activated” for “of active”, “for 60” for “for 30”
Aurora-B (human, Upstate, Dundee, UK) was pre-activated immediately prior to kinase assay in appropriate buffers (20 mM Tris, 25 mM β-glycerophosphate, 5 mM EGTA, 1 mM DTT, 1 mM sodium vanadate, pH 7.5) by incubating 15 μg of enzyme with 4 μg INCENP (Upstate, Dundee, UK) in the presence of MgATP mix (15 mM MgCl2+100 μM ATP) for 15 min at 30° C.

T3 sequence (Q96GD4 whole entry): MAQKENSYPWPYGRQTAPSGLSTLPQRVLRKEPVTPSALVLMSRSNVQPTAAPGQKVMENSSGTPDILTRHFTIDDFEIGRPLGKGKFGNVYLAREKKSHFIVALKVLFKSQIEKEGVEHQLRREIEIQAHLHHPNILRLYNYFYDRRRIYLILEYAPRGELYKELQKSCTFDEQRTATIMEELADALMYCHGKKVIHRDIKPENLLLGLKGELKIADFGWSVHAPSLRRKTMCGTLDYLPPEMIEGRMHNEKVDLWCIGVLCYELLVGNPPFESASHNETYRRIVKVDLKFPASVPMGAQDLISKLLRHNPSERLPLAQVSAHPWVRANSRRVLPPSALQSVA
Chain of PKC-δ (Q05655 whole entry): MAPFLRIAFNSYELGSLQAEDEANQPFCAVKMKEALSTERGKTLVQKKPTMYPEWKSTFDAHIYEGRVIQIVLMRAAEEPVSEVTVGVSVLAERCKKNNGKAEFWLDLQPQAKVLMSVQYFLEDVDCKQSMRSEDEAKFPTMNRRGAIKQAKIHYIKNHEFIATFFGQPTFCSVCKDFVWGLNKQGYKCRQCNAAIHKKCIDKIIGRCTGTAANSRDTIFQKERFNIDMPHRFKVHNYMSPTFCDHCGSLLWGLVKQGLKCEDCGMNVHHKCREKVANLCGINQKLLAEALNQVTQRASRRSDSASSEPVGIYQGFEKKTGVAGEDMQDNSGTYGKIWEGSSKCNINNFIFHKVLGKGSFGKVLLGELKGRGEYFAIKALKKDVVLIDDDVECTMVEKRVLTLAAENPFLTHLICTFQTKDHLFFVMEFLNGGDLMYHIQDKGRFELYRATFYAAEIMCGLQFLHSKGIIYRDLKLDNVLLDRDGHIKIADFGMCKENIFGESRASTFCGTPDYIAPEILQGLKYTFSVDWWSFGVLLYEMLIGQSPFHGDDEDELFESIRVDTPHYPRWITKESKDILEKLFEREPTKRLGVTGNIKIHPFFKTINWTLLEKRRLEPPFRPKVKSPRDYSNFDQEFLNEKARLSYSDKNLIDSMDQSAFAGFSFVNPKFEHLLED
Chain of EGF-R (P00533 25-1210, species assumed): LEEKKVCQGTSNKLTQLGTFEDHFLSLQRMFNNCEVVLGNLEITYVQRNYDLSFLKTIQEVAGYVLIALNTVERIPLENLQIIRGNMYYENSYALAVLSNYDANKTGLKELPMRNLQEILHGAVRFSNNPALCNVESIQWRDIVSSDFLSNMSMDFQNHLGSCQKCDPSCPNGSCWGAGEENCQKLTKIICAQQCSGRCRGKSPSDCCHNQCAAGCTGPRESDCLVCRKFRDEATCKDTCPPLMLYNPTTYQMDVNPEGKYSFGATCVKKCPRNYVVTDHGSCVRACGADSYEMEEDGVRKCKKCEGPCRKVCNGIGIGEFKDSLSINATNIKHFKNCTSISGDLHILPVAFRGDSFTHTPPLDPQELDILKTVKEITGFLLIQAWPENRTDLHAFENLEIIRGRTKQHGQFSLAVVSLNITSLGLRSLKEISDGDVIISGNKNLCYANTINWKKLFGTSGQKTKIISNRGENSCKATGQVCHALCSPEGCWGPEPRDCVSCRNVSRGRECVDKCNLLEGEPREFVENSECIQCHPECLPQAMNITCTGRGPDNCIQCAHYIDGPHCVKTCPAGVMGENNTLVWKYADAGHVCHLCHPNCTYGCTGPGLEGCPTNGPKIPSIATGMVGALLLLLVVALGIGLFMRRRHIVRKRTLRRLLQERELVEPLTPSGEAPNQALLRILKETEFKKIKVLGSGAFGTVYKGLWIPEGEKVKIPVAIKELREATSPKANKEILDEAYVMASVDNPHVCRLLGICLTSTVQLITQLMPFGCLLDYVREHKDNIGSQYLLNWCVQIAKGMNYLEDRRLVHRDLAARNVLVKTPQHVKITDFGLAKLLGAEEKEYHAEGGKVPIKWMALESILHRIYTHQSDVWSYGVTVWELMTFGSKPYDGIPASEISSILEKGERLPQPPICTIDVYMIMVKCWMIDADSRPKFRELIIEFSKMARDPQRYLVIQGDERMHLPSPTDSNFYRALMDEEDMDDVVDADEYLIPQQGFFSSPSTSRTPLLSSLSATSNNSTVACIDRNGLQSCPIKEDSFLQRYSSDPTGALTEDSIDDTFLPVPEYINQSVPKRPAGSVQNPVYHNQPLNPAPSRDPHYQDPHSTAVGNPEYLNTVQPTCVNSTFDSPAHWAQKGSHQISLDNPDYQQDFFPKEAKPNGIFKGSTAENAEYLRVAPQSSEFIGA
Chain of CDK7/cyclin H (P50613 whole entry): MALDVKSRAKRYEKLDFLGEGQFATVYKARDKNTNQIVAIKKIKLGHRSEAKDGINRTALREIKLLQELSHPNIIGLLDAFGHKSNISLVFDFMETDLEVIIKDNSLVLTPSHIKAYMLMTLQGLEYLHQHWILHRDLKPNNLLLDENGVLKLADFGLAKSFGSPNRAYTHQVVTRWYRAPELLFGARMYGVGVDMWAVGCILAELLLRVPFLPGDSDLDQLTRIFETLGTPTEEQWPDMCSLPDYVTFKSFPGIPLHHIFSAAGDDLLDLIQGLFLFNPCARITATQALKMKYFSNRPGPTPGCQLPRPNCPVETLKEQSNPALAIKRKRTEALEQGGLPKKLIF
Chain of CDK7/cyclin H (P51946 whole entry partner): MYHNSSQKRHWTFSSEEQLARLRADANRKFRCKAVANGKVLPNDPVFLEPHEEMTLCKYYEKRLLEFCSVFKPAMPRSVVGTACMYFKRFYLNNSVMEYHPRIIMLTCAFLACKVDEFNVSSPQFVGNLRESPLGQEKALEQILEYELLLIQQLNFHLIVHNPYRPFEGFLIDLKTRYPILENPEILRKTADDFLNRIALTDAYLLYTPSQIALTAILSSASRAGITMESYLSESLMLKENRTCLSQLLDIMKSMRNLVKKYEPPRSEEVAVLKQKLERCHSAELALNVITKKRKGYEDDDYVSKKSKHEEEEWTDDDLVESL

| Structure (SMILES) | IC50 [4] [µM] | IC50 [5] [µM] | IC50 [6] [µM] | IC50 [8] [µM] | further results |
| --- | --- | --- | --- | --- | --- |
| FC(F)C(F)(F)Oc1cccc(Nc2nccc(-c3c[nH]c4ccccc34)n2)c1 [[4-(1H-indol-3-yl)-pyrimidin-2-yl]-[3-(1,1,2,2-tetrafluoro-ethoxy)-phenyl]-amine] | – | – | – | – | kinase inhibition PKC-δ [1]: shown to inhibit; kinase inhibition PKC-α [2]: shown to inhibit; kinase inhibition EGF-R [3]: shown to inhibit |
| COc1ccc2c(-c3ccnc(Nc4ccc(N5CCN(C(C)=O)CC5)cc4)n3)c[nH]c2c1 [Compound 24] | 0.723 | 0.21 | 0.576 | – | – |
| Cc1cc(N2CCOCC2)ccc1Nc1nccc(-c2c[nH]c3ccccc23)n1 [Compound 11, 4-(1H-indol-3-yl)-N-(2-methyl-4-morpholin-4-ylphenyl)pyrimidin-2-amine] | 6.82 | – | 4.66 | 0.726 | IC50 [7]: 0.332 µM |
| COc1cccc2c(-c3ccnc(Nc4ccc(N5CCN(C(C)=O)CC5)cc4)n3)c[nH]c12 [Compound 21, 4-(7-methoxy-1H-indol-3-yl)-N-(4-acetylpiperazin-1-ylphenyl)pyrimidin-2-amine] | 1.04 | 0.234 | – | – | – |
| c1ccc(CN2CCN(c3ccc(Nc4nccc(-c5c[nH]c6ccccc56)n4)cc3)CC2)cc1 [Compound 8, 4-(1H-indol-3-yl)-N-(4-benzylpiperazin-1-ylphenyl)pyrimidin-2-amine] | 5.46 | – | 5.43 | 0.0788 | IC50 [9]: 6.04 µM; IC50 [10]: 1.41 µM |

From patent publication US20090318446A1, “4-(1H-Indol-3-yl)-Pyrimidin-2-Ylamine Derivatives and Their Use in Therapy” (Cyclacel Limited, priority 2005, published 2009)
